Laboratory results taken from US20130030012A1, “COMPOUNDS” (Glaxo Group Limited, priority 2011, published 2013).
Counter-ions that a name gives are not always drawn. Like-named read-outs stand apart in the source and are kept apart here.

Assays:
[1] = target: T1, recombinant human Lp-PLA2 (Homo sapiens, UniProt Q13093); assay: Recombinant human Lp-PLA2 assay (rhLp-PLA2, PED6 assay); type: biochemical; conditions: upper limit for pIC50 in this assay is 9.3
T1 sequence (Q13093 22-441): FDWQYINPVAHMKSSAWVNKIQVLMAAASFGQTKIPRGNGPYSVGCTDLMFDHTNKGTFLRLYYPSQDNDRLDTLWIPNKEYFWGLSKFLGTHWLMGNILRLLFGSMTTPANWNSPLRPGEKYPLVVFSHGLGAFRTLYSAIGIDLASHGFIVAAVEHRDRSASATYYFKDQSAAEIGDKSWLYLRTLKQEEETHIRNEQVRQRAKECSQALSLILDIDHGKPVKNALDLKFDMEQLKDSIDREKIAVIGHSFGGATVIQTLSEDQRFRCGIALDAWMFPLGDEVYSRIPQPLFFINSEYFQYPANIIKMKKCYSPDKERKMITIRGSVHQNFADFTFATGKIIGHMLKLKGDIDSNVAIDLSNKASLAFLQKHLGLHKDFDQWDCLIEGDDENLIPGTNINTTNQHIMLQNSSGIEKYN
Excerpt: (1) Recombinant Human Lp-PLA2 Assay (rhLp-PLA2) (Also Referred to as “PED6” Assay)
N-((6-(2,4-dinitrophenyl)amino)-hexanoyl)-2-(4,4-difluoro-5,7-dimethyl-4-bora-3a,4a-diaza-s-indacene-3-pentanoyl)-1-hexadecanoyl-sn-glycero-3-phosphoethanolamine, triethylammonium salt (PED6) is a commercially available fluorescently-labeled phospholipid, which is commercially available from Invitrogene and Molecular Probes. There is a quenching […] and a Bodipy fluorescein (FL) group in the sn2 position. Upon cleavage with Lp-PLA2, the Bodipy FL group is liberated and then may result in an increase in fluorescence. Inhibitors of Lp-PLA2 therefore prevent this cleavage and no fluorescent increase is observed.
The PED6 assay was run as an unquenched 10 μL assay. The source plate containing the compounds to be tested was prepared by making 1:3 (by volume) serial dilution of the compounds within DMSO on 384-well microplate. Then, 0.01 μL of the compounds on compound source plate were transferred into 384 well Greiner 784076 (black) plates using ECHO liquid dispenser. 5 μL of recombinant human Lp-PLA2 enzyme (4 nM (or 110 pM) rhLp-PLA2 in assay buffer of 50 mM HEPES, pH 7.4, 150 mM NaCl, 1 mM CHAPS) was added to each well of the plate. Plates were centrifuged for 10 sec at 500 rpm. After 30 minutes preincubation, 5 μL of substrate ([…] (or 5 μM) PED6 [from 5 mM DMSO stock] in assay buffer of 50 mM HEPES, pH 7.4, 150 mM NaCl, 1 mM CHAPS) was added to 384 well Greiner 784076 (black) plates. Plates were centrifuged for 10 sec at 500 rpm. The plate was covered to protect it from light and incubated for 20 min at room temperature. The plates were read for fluorescence intensity at ex: 480/em: 540 using ViewLux microplate imager for Envision spectrofluoroimeters pIC50 data, curve and QC analysis was conducted by using XL fit module in Excel.
The compounds described below were tested generally according to the PED6 assay described above.

Lp-PLA2 in human plasma = target: T2, Lp-PLA2 in human plasma (Homo sapiens, UniProt Q13093); assay: Lp-PLA2 human plasma assay (Thio-PAF assay); type: biochemical; conditions: pooled human plasma; read-out: pIC50 values in the thio-PAF assay (converted)
T2 construct: from tissue; host or cells: pooled human plasma
T2 sequence (Q13093 22-441): T1 sequence (Q13093 22-441)
Excerpt: The human plasma assay utilizes a thioester analog of PAF (phosphatidylcholine), where hydrolysis yields to the formation of a phospholipid containing a free thiol group. The amount of thiol is quantitated continuously by reacting with CPM (7-diethylamino-3-(4′-maleimidylphenyl)-4-methylcoumarin), a maleimide which increases in fluoresence after Michael addition of thiols. This assay may detect the activity of Lp-PLA2 in human plasma, as determined by specific inhibition by Lp-PLA2 inhibitors.
The thio-PAF assay was run as a quenched 15 μL assay. Compounds source plate was prepared by making 1:3 (by volume) serial dilution of the compounds into pure DMSO on 384-well microplate. 0.01 μL of compounds on compound source plate were transferred to 384 well Greiner 784076 (black) low-volume plates by ECHO liquid dispenser. 8 μL pooled human plasma, which was previously aliquoted and frozen, was added. Plates were centrifuged for 10 sec at 500 rpm. After 30 minutes preincubation, 2 μL of substrate solution comprising 2.5 mM 2-thio-PAF [from ethanol stock], […] CPM [from a DMSO stock] and 3.2 mM NEM (N-ethylmaleimide) [made fresh daily in DMSO] in assay buffer of 50 mM HEPES, pH 7.4, 150 mM NaCl, 1 mM CHAPS was added to 384 well Greiner 784076 (black) low-volume plates by BRAVO liquid handling station. After 2 mins, reaction was quenched with 5 μL of 5% aqueous trifluoroacetic acid (TFA). Plates were covered to protect from light and incubated for 40 min at room temperature. Plates were read at ex: 380/em: 485 using—Envision microplate reader. pIC50 data, curve and QC analysis was conducted by using XLFit module in Excel.

[2] = read-out: pIC50 values in the PED6 assay (converted)
[3] = Table 1, read-out: rhLp-PLA2 (PED6 assay) (pIC50) (converted)

Structure (SMILES): CN1CCCn2c1cc(OCc1ccc(Oc3cccc(C(F)(F)F)c3)c(C#N)c1)nc2=O [Example 1, 5-(((1-methyl-6-oxo-2,3,4,6-tetrahydro-1H-pyrimido[1,6-a]pyrimidin-8-yl)oxy)methyl)-2-(3-(trifluoromethyl)phenoxy)benzonitrile]
- IC50 [1, 2]: ≤ 10 nM
- IC50 (Lp-PLA2 in human plasma): ≤ 100 nM

Structure (SMILES): CN1CCCn2c1cc(OCc1ccc(Oc3ccc(C(F)(F)F)cn3)c(C#N)c1)nc2=O [Example 2, 5-(((1-methyl-6-oxo-2,3,4,6-tetrahydro-1H-pyrimido[1,6-a]pyrimidin-8-yl)oxy)methyl)-2-((5-(trifluoromethyl)pyridin-2-yl)oxy)benzonitrile]
- IC50 [1, 3]: 2.51 nM
- IC50 [1, 2]: ≤ 10 nM
- IC50 (Lp-PLA2 in human plasma): ≤ 100 nM

Structure (SMILES): CN1CCCn2c1cc(OCc1cc(F)c(Oc3ccc(C(F)(F)F)nc3)c(F)c1)nc2=O [Example 3, 8-((3,5-difluoro-4-((6-(trifluoromethyl)pyridin-3-yl)oxy)benzyl)oxy)-1-methyl-3,4-dihydro-1H-pyrimido[1,6-a]pyrimidin-6(2H)-one]
- IC50 [1, 3]: 1 nM
- IC50 [1, 2]: ≤ 1 nM
- IC50 (Lp-PLA2 in human plasma): ≤ 100 nM

Structure (SMILES): CN1CCCn2c1cc(OCc1ccc(Oc3ccc(C(F)(F)F)nc3)c(F)c1)nc2=O [Example 4, 8-((3-fluoro-4-((6-(trifluoromethyl)pyridin-3-yl)oxy)benzyl)oxy)-1-methyl-3,4-dihydro-1H-pyrimido[1,6-a]pyrimidin-6(2H)-one]
- IC50 [1, 2]: ≤ 10 nM
- IC50 (Lp-PLA2 in human plasma): ≤ 100 nM

Structure (SMILES): CN1CCCn2c1cc(OCc1ccc(Oc3ccc(F)c(F)c3)c(F)c1)nc2=O [Example 5, 8-((4-(3,4-difluorophenoxy)-3-fluorobenzyl)oxy)-1-methyl-3,4-dihydro-1H-pyrimido[1,6-a]pyrimidin-6(2H)-one]
- IC50 [1, 2]: ≤ 10 nM
- IC50 (Lp-PLA2 in human plasma): ≤ 100 nM

Structure (SMILES): CN1CCCn2c1cc(OCc1ccc(Oc3ccc(Cl)c(C(F)(F)F)c3)cc1)nc2=O [Example 6, 8-((4-(4-chloro-3-(trifluoromethyl)phenoxy)benzyl)oxy)-1-methyl-3,4-dihydro-1H-pyrimido[1,6-a]pyrimidin-6(2H)-one]
- IC50 [1, 2]: ≤ 10 nM
- IC50 (Lp-PLA2 in human plasma): ≤ 1000 nM

Structure (SMILES): CN1CCCn2c1cc(OCc1ccc(Oc3ccc(Cl)c(Cl)c3)cc1)nc2=O [Example 7, 8-((4-(3,4-dichlorophenoxy)benzyl)oxy)-1-methyl-3,4-dihydro-1H-pyrimido[1,6-a]pyrimidin-6(2H)-one]
- IC50 [1, 3]: 0.794 nM
- IC50 [1, 2]: ≤ 1 nM
- IC50 (Lp-PLA2 in human plasma): ≤ 100 nM

Structure (SMILES): CN1CCCn2c1cc(OCc1ccc(F)cc1)nc2=O [Example 8, 8-((4-fluorobenzyl)oxy)-1-methyl-3,4-dihydro-1H-pyrimido[1,6-a]pyrimidin-6(2H)-one]
- IC50 (Lp-PLA2 in human plasma): ≤ 1000 nM

Structure (SMILES): CN1CCCn2c1cc(NCCc1ccc(Oc3ccc(Cl)c(C(F)(F)F)c3)cc1)nc2=O [Example 9, 8-((4-(4-chloro-3-(trifluoromethyl)phenoxy)phenethyl)amino)-1-methyl-3,4-dihydro-1H-pyrimido[1,6-a]pyrimidin-6(2H)-one, trifluoroacetic acid salt]
- IC50 (Lp-PLA2 in human plasma): ≤ 1000 nM

Structure (SMILES): CN1CCCn2c1cc(OCc1ccc(F)c(F)c1)nc2=O [Example 10, 8-((3,4-difluorobenzyl)oxy)-1-methyl-3,4-dihydro-1H-pyrimido[1,6-a]pyrimidin-6(2H)-one, trifluoroacetic acid salt]
- IC50 [1, 2]: ≤ 10 nM
- IC50 (Lp-PLA2 in human plasma): ≤ 100 nM

Structure (SMILES): CN1CCCn2c1cc(OCc1cccc(F)c1F)nc2=O [Example 12, 8-((2,3-difluorobenzyl)oxy)-1-methyl-3,4-dihydro-1H-pyrimido[1,6-a]pyrimidin-6(2H)-one]
- IC50 (Lp-PLA2 in human plasma): ≤ 1000 nM

Structure (SMILES): CN1CCCn2c1cc(OCc1ccc(Oc3ccc(F)c(C(F)(F)F)c3)c(F)c1)nc2=O [Example 13, 8-((3-fluoro-4-(4-fluoro-3-(trifluoromethyl)phenoxy)benzyl)oxy)-1-methyl-3,4-dihydro-1H-pyrimido[1,6-a]pyrimidin-6(2H)-one]
- IC50 [1, 2]: ≤ 10 nM
- IC50 (Lp-PLA2 in human plasma): ≤ 100 nM

Structure (SMILES): CN1CCCn2c1cc(OCc1ccc(Oc3ccc(F)c(F)c3)cc1)nc2=O [Example 14, 8-((4-(3,4-difluorophenoxy)benzyl)oxy)-1-methyl-3,4-dihydro-1H-pyrimido[1,6-a]pyrimidin-6(2H)-one]
- IC50 [1, 2]: ≤ 10 nM

Structure (SMILES): CN1CCCn2c1cc(OCc1ccc(F)cc1F)nc2=O [Example 20, 8-((2,4-difluorobenzyl)oxy)-1-methyl-3,4-dihydro-1H-pyrimido[1,6-a]pyrimidin-6(2H)-one]
- IC50 (Lp-PLA2 in human plasma): ≤ 1000 nM

Structure (SMILES): CN1CCCn2c1cc(OCc1cccc(C#N)c1)nc2=O [Example 27, 3-(((1-methyl-6-oxo-2,3,4,6-tetrahydro-1H-pyrimido[1,6-a]pyrimidin-8-yl)oxy)methyl)benzonitrile]
- IC50 (Lp-PLA2 in human plasma): ≤ 100 nM

Structure (SMILES): CN1CCCn2c1cc(OCc1cc(F)cc(F)c1)nc2=O [Example 31, 8-((3,5-difluorobenzyl)oxy)-1-methyl-3,4-dihydro-1H-pyrimido[1,6-a]pyrimidin-6(2H)-one]
- IC50 (Lp-PLA2 in human plasma): ≤ 1000 nM

Structure (SMILES): CN1CCCn2c1cc(OCc1cc(F)cc(C#N)c1)nc2=O [Example 33, 3-fluoro-5-(((1-methyl-6-oxo-2,3,4,6-tetrahydro-1H-pyrimido[1,6-a]pyrimidin-8-yl)oxy)methyl)benzonitrile]
- IC50 (Lp-PLA2 in human plasma): ≤ 100 nM

Structure (SMILES): CN1CCCn2c1cc(OCc1cccc(F)c1)nc2=O [Example 37, 8-((3-fluorobenzyl)oxy)-1-methyl-3,4-dihydro-1H-pyrimido[1,6-a]pyrimidin-6(2H)-one]
- IC50 (Lp-PLA2 in human plasma): ≤ 100 nM

Structure (SMILES): CN1CCCn2c1cc(SCc1ccc(F)cc1)nc2=O [Example 66, 8-(4-Fluoro-benzylsulfanyl)-1-methyl-1,2,3,4-tetrahydro-pyrimido[1,6-a]pyrimidin-6-one]
- IC50 (Lp-PLA2 in human plasma): ≤ 1000 nM

Structure (SMILES): CN1CCCn2c1cc(OCc1ccc(Oc3cncnc3)c(C#N)c1)nc2=O [Example 86, 5-(((1-methyl-6-oxo-2,3,4,6-tetrahydro-1H-pyrimido[1,6-a]pyrimidin-8-yl)oxy)methyl)-2-(pyrimidin-5-yloxy)benzonitrile]
- IC50 (Lp-PLA2 in human plasma): ≤ 1000 nM

Structure (SMILES): Cc1ccc(Oc2ccc(COc3cc4n(c(=O)n3)CCCN4)cc2)cc1F [Example 108, 8-((4-(3-fluoro-4-methylphenoxy)benzyl)oxy)-3,4-dihydro-1H-pyrimido[1,6-a]pyrimidin-6(2H)-one]
- IC50 [1, 2]: ≤ 10 nM

Structure (SMILES): CN1CCCn2c1cc(OCCc1ccc(Oc3ccc(F)c(F)c3)cc1)nc2=O [Example 110, 8-(4-(3,4-difluorophenoxy)phenethoxy)-1-methyl-3,4-dihydro-1H-pyrimido[1,6-a]pyrimidin-6(2H)-one]
- IC50 [1, 2]: ≤ 10 nM

Structure (SMILES): O=c1nc(OCCc2ccc(F)c(F)c2)cc2n1CCCN2 [Example 111, 8-(3,4-difluorophenethoxy)-3,4-dihydro-1H-pyrimido[1,6-a]pyrimidin-6(2H)-one]
- IC50 (Lp-PLA2 in human plasma): ≤ 1000 nM

Structure (SMILES): O=c1nc(OCCc2ccc(Cl)c(Cl)c2)cc2n1CCCN2 [Example 112, 8-(3,4-dichlorophenethoxy)-3,4-dihydro-1H-pyrimido[1,6-a]pyrimidin-6(2H)-one]
- IC50 (Lp-PLA2 in human plasma): ≤ 100 nM
